Calls of active or inactive are those of the source. No cut-off for these calls is given here.
Key:
[1] = target: GABA-A receptor; anion channel; test: Binding affinity against benzodiazepine (BZ) receptor by displacing [3H]diazepam in cerebral cortex of Wistar rats; type: tissue-based, Rattus norvegicus
Mus musculus [2] = test: Inverse agonist activity of orally administered compound against a subcutaneous dose of 75 mg/kg of PTZ-induced convulsions in mice; type: functional; conditions: route oral
Mus musculus [3] = test: Inverse agonist activity of orally administered compound against a subcutaneous dose of 90 mg/kg of PTZ-induced convulsions in mice; type: functional; conditions: route oral
Mus musculus [4] = test: Inverse agonist activity of orally administered compound against a subcutaneous dose of 90 mg/kg of PTZ-induced convulsions in mice; Inactive up to 50 mg/kg; type: functional, organism-based
Mus musculus [5] = test: Agonist activity was evaluated by the inhibition of the pentylenetetrazole (PTZ) induced convulsions after peroral administration at 50 mg/kg; type: functional; conditions: route oral
Mus musculus [6] = test: Agonist activity was evaluated by the inhibition of the pentylenetetrazole (PTZ) induced convulsions after peroral administration; type: functional; conditions: po
Mus musculus [7] = test: Inverse agonist activity of orally administered compound against a subcutaneous dose of 75 mg/kg of PTZ-induced convulsions in mice; Inactive up to 50 mg/kg; type: functional, organism-based
Mus musculus [8] = test: Agonist activity was evaluated by the inhibition of the pentylenetetrazole (PTZ) induced convulsions after peroral administration; Inactive up to 50 mg/kg; type: functional, organism-based; set-up: dose 50 mg/kg
Mus musculus [9] = test: Inverse agonist activity of orally administered compound against a subcutaneous dose of 75 mg/kg of PTZ-induced convulsions in mice; inactive up to 50 mg/kg; type: functional, organism-based
Mus musculus [10] = test: Inverse agonist activity of orally administered compound against a subcutaneous dose of 90 mg/kg of PTZ-induced convulsions in mice; Inactive; type: functional, organism-based; set-up: dose 90 mg/kg
Mus musculus [11] = test: Inverse agonist activity of orally administered compound against a subcutaneous dose of 90 mg/kg of PTZ-induced convulsions in mice; inactive; type: functional, organism-based; set-up: dose 90 mg/kg
Mus musculus [12] = test: Inverse agonist activity of orally administered compound against a subcutaneous dose of 90 mg/kg of PTZ-induced convulsions in mice; inactive up to 50 mg/kg; type: functional, organism-based
Mus musculus [13] = test: Inverse agonist activity of orally administered compound against a subcutaneous dose of 90 mg/kg of PTZ-induced convulsions in mice expressed as percent of mice affected; type: functional; conditions: route oral
Mus musculus [14] = test: Inverse agonist activity of orally administered compound against a subcutaneous dose of 50 mg/kg of PTZ-induced convulsions in mice; expressed as percent of mice affected; type: functional; conditions: route oral
Mus musculus [15] = test: Inverse agonist activity of orally administered compound against a subcutaneous dose of 50 mg/kg of PTZ-induced convulsions in mice; type: functional; conditions: route oral

`Cc1cc(-n2[nH]c3c(cnc4c(Cl)cccc43)c2=O)cs1` showed a Ki [1] of 0.63 nM, an ED50 (Mus musculus [2]) of 13.5 mg/kg and an ED50 (Mus musculus [3]) of 7.7 mg/kg.

In the case of `Cc1ccc(-n2[nH]c3c(cnc4c(Cl)cccc43)c2=O)s1`, the Ki [1] is reported as 0.75 nM, the ED50 (Mus musculus [4]) is reported as “inactive” and the Animals affected (Mus musculus [5]) is reported as 25%.

`CCn1cc2c(=O)n(-c3csc(C)c3)nc-2c2ccccc21` gave a Ki [1] of 436 nM, an ED50 (Mus musculus [2]) of 13.3 mg/kg and an ED50 (Mus musculus [3]) of 5.24 mg/kg.

Molecule `Cc1ccc(-n2nc3c4ccccc4n(C)cc-3c2=O)s1` has a Ki [1] of 1020 nM and an ED50 (Mus musculus [6]) of 13.4 mg/kg.

Molecule `CN1C(=O)CN=C(c2ccccc2)c2cc(Cl)ccc21` [DIAZEPAM] has an ED50 (Mus musculus [6]) of 0.67 mg/kg.

For `O=C1C2C=Nc3ccccc3C2=NN1c1ccccc1` (centres undefined), the ED50 (Mus musculus [7]) was “inactive”.

`CCOC(=O)c1cc(C)sc1-n1[nH]c2c(cnc3ccccc32)c1=O` was tested, and the Ki [1] was 9.84 nM, the ED50 (Mus musculus [8]) was “inactive” and the ED50 (Mus musculus [4]) was “inactive”.

In the case of `O=C(O)c1sccc1-n1[nH]c2c(cnc3ccccc32)c1=O`, the Ki [1] is reported as 17.8 nM, the ED50 (Mus musculus [8]) is reported as “inactive” and the ED50 (Mus musculus [9]) is reported as “inactive”. For the same molecule, the ED50 (Mus musculus [10]) was “inactive”.

`COC(=O)c1sccc1-n1[nH]c2c(cnc3ccccc32)c1=O` was tested, and the Ki [1] was 142 nM, the ED50 (Mus musculus [8]) was “inactive” and the ED50 (Mus musculus [9]) was “inactive”. The ED50 (Mus musculus [11]) was “inactive”.

`Cc1ccc(-n2[nH]c3c(cnc4cc(Cl)ccc43)c2=O)s1` was tested, and the Ki [1] was 1.05 nM, the ED50 (Mus musculus [8]) was “inactive” and the ED50 (Mus musculus [4]) was “inactive”.

`O=c1c2cnc3ccccc3c2[nH]n1-c1csc(Cl)c1` gave a Ki [1] of 0.73 nM, an ED50 (Mus musculus [2]) of 23.2 mg/kg and an ED50 (Mus musculus [3]) of 11.5 mg/kg.

`Cc1ccc(-n2[nH]c3c(cnc4cc(F)ccc43)c2=O)s1` gave a Ki [1] of 0.65 nM and an ED50 (Mus musculus [6]) of 16.3 mg/kg.

In the case of `Cc1ccc2c(c1)ncc1c(=O)n(-c3ccc(C)s3)[nH]c12`, the Ki [1] is reported as 2.34 nM, the ED50 (Mus musculus [8]) is reported as “inactive” and the ED50 (Mus musculus [10]) is reported as “inactive”.

For `Cc1ccc2c(c1)ncc1c(=O)n(-c3csc(C)c3)[nH]c12`, the Ki [1] was 0.96 nM, the ED50 (Mus musculus [8]) was “inactive” and the ED50 (Mus musculus [10]) was “inactive”.

For `Cc1cc(-n2nc3c4ccccc4n(C)cc-3c2=O)cs1`, the Ki [1] was 215 nM, the ED50 (Mus musculus [2]) was 2.94 mg/kg and the ED50 (Mus musculus [3]) was 1.48 mg/kg.

`Cc1cc(-n2[nH]c3c(cnc4c(F)cccc43)c2=O)cs1` showed a Ki [1] of 0.37 nM, an ED50 (Mus musculus [2]) of 2.58 mg/kg and an ED50 (Mus musculus [3]) of 1.32 mg/kg.

For `Cc1cc(-n2[nH]c3c(cnc4cc(Cl)ccc43)c2=O)cs1`, the Ki [1] was 0.78 nM, the ED50 (Mus musculus [8]) was “inactive” and the ED50 (Mus musculus [12]) was “inactive”. For the same molecule, the ED50 (Mus musculus [9]) was “inactive”.

With `Cc1cc(C(=O)O)c(-n2[nH]c3c(cnc4ccccc43)c2=O)s1` the Ki [1] was 21.6 nM, the ED50 (Mus musculus [8]) was “inactive” and the ED50 (Mus musculus [4]) was “inactive”.

In the case of `Cc1cscc1-n1[nH]c2c(cnc3ccccc32)c1=O`, the Ki [1] is reported as 6.86 nM, the ED50 (Mus musculus [2]) is reported as 84.4 mg/kg and the ED50 (Mus musculus [3]) is reported as 22.3 mg/kg.

With `O=c1c2cnc3ccccc3c2[nH]n1-c1ccc(Cl)s1` the Ki [1] was 2.48 nM, the ED50 (Mus musculus [8]) was “inactive” and the Affected animals (Mus musculus [13]) was 25%.

`Cc1cc(-n2[nH]c3c(cnc4ccccc43)c2=O)c(Br)s1` was tested, and the Ki [1] was 27.2 nM, the ED50 (Mus musculus [8]) was “inactive” and the ED50 (Mus musculus [12]) was “inactive”. For the same molecule, the ED50 (Mus musculus [9]) was “inactive”.

With `Cc1cc(-n2[nH]c3c(cnc4cc(F)ccc43)c2=O)cs1` the Ki [1] was 0.64 nM, the Affected animals (Mus musculus [14]) was 37.7% and the ED50 (Mus musculus [3]) was 6.15 mg/kg.

For `Cc1ccc(-n2[nH]c3c(cnc4c(F)cccc43)c2=O)s1`, the Ki [1] was 0.92 nM and the ED50 (Mus musculus [6]) was 30.4 mg/kg.

In the case of `Cc1ccc(-n2[nH]c3c(cnc4c(C)cccc43)c2=O)s1`, the Ki [1] is reported as 0.83 nM, the ED50 (Mus musculus [6]) is reported as 25 mg/kg and the ED50 (Mus musculus [4]) is reported as “inactive”.

`O=c1c2cnc3ccccc3c2[nH]n1-c1ccsc1` was tested, and the Ki [1] was 0.73 nM, the ED50 (Mus musculus [2]) was 7.62 mg/kg and the ED50 (Mus musculus [3]) was 2.49 mg/kg.

In the case of `CCc1cc(-n2[nH]c3c(cnc4ccccc43)c2=O)cs1`, the Ki [1] is reported as 0.41 nM, the ED50 (Mus musculus [9]) is reported as “inactive” and the ED50 (Mus musculus [3]) is reported as 10.3 mg/kg.

`Cc1cc(-n2[nH]c3c(cnc4ccccc43)c2=O)c(Cl)s1` was tested, and the Ki [1] was 4.69 nM, the ED50 (Mus musculus [8]) was “inactive” and the ED50 (Mus musculus [9]) was “inactive”. The ED50 (Mus musculus [10]) was “inactive”.

Molecule `Cc1cc(-n2[nH]c3c(cnc4ccccc43)c2=O)cs1` has an ED50 (Mus musculus [3]) of 0.92 mg/kg.

Molecule `CCCCc1ccc(-n2[nH]c3c(cnc4ccccc43)c2=O)s1` has a Ki [1] of 1.48 nM and an ED50 (Mus musculus [6]) of 12.5 mg/kg.

`Cc1csc(-n2[nH]c3c(cnc4ccccc43)c2=O)c1` was tested, and the Ki [1] was 0.48 nM, the ED50 (Mus musculus [8]) was “inactive” and the Affected animals (Mus musculus [13]) was 62.5%. The ED50 (Mus musculus [9]) was “inactive”.

Work on `CCc1ccc(-n2[nH]c3c(cnc4ccccc43)c2=O)s1` yielded a Ki [1] of 1.02 nM and an ED50 (Mus musculus [6]) of 14.3 mg/kg.

For `O=c1c2cnc3ccccc3c2[nH]n1-c1cccs1`, the Ki [1] was 0.41 nM, the ED50 (Mus musculus [8]) was “inactive” and the ED50 (Mus musculus [3]) was 9.54 mg/kg. The Animals affected (Mus musculus [15]) was 50%.

`Cc1cc(-n2[nH]c3c(cnc4ccccc43)c2=O)sc1C` was tested, and the Ki [1] was 0.73 nM and the ED50 (Mus musculus [6]) was 30.6 mg/kg.

In the case of `Cc1cc(-n2[nH]c3c(cnc4c(C)cccc43)c2=O)cs1`, the Ki [1] is reported as 0.38 nM, the ED50 (Mus musculus [2]) is reported as 12.9 mg/kg and the ED50 (Mus musculus [3]) is reported as 5.24 mg/kg.

In the case of `O=C1C2C=Nc3ccccc3C2=NN1c1ccc(Cl)cc1` (centres undefined) [CGS-9896], the Ki [1] is reported as 0.83 nM and the ED50 (Mus musculus [6]) is reported as 1.17 mg/kg.
